Measured values taken from PubChem BioAssay AID1963984 (Molecular Pharmacology Branch, DTP, NCI, 2024).

System: 233499-124-R-J3-PDC spheroids with HUVEC/MSC, viability
Experiment: Anticancer human tumor 233499-124-R-J3-PDC patient-derived colon adenocarcinoma cell line growth inhibition [PI3K]
Settings: for IC50: curve of first compound; for viability, T/C: stronger effect = lower value
Procedure, shortened: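 We assembled tumor spheroids that included a stromal compartment of HUVEC and MSCs, then exposed them to targeted agents alone and together with PI3K pathway inhibitors. Concentration series descended by half-log from clinically achievable Cmax levels. Viability served as the endpoint.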

[1] = second compound 0.0316 µM, first compound 0.0316 µM
[2] = second compound 0.0316 µM, first compound 0.1 µM
[3] = second compound 0.1 µM, first compound 0.0316 µM
[4] = second compound 0.1 µM, first compound 0.1 µM
[5] = second compound 0.316 µM, first compound 0.0316 µM
[6] = second compound 0.316 µM, first compound 0.1 µM
[7] = second compound 1 µM, first compound 0.0316 µM
[8] = second compound 1 µM, first compound 0.1 µM
[9] = second compound 0.0316 µM, first compound 0.316 µM
[10] = second compound 0.0316 µM, first compound 1 µM
[11] = second compound 0.0316 µM, first compound 3.16 µM
[12] = second compound 0.0316 µM, first compound 10 µM
[13] = second compound 0.1 µM, first compound 0.316 µM
[14] = second compound 0.1 µM, first compound 1 µM
[15] = second compound 0.1 µM, first compound 3.16 µM
[16] = second compound 0.1 µM, first compound 10 µM
[17] = second compound 0.316 µM, first compound 0.316 µM
[18] = second compound 0.316 µM, first compound 1 µM
[19] = second compound 0.316 µM, first compound 3.16 µM
[20] = second compound 0.316 µM, first compound 10 µM
[21] = second compound 1 µM, first compound 0.316 µM
[22] = second compound 1 µM, first compound 1 µM
[23] = second compound 1 µM, first compound 3.16 µM
[24] = second compound 1 µM, first compound 10 µM
[25] = second compound 3.16 µM, first compound 0.0316 µM
[26] = second compound 3.16 µM, first compound 0.1 µM
[27] = second compound 3.16 µM, first compound 0.316 µM
[28] = second compound 3.16 µM, first compound 1 µM
[29] = second compound 3.16 µM, first compound 3.16 µM
[30] = second compound 3.16 µM, first compound 10 µM
[31] = second compound 10 µM, first compound 0.0316 µM
[32] = second compound 10 µM, first compound 0.1 µM
[33] = second compound 10 µM, first compound 0.316 µM
[34] = second compound 10 µM, first compound 1 µM
[35] = second compound 10 µM, first compound 3.16 µM
[36] = second compound 10 µM, first compound 10 µM
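Further: spheroids exposed to agents for seven days before readout.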
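Wherever viability, T/C is given: percent viability relative to DMSO vehicle control taken as 100%.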

`Cn1ncnc1[C@H]1c2n[nH]c(=O)c3cc(F)cc(c23)N[C@@H]1c1ccc(F)cc1` + COc1c(OCCCN2CCOCC2)ccc2c3n(c(=NC(=O)c4cnc(N)nc4)nc12)CCN3 showed an IC50 (second compound 0.00316 µM) of over 0.1 µM, an IC50 (second compound 0.01 µM) of over 0.1 µM and an IC50 (second compound 0.0316 µM) of over 0.1 µM. The IC50 (second compound 0.1 µM) was over 0.1 µM, the IC50 (second compound 0.316 µM) was under 0.000316 µM and the IC50 (second compound 1 µM) was under 0.000316 µM. For the same molecule, the viability, T/C (second compound 0.00316 µM, first compound 0.000316 µM) was 97.7%, the viability, T/C (second compound 0.00316 µM, first compound 0.001 µM) was 111% and the viability, T/C (second compound 0.00316 µM, first compound 0.00316 µM) was 97.2%. The viability, T/C (second compound 0.00316 µM, first compound 0.01 µM) was 111%, the viability, T/C (second compound 0.00316 µM, first compound 0.0316 µM) was 90.2% and the viability, T/C (second compound 0.00316 µM, first compound 0.1 µM) was 85.9%. For the same molecule, the viability, T/C (second compound 0.01 µM, first compound 0.000316 µM) was 90.1%, the viability, T/C (second compound 0.01 µM, first compound 0.001 µM) was 92.3% and the viability, T/C (second compound 0.01 µM, first compound 0.00316 µM) was 90%. It also gave a viability, T/C (second compound 0.01 µM, first compound 0.01 µM) of 78.2%, a viability, T/C (second compound 0.01 µM, first compound 0.0316 µM) of 90.9% and a viability, T/C (second compound 0.01 µM, first compound 0.1 µM) of 66.9%. For the same molecule, the viability, T/C (second compound 0.0316 µM, first compound 0.000316 µM) was 94%, the viability, T/C (second compound 0.0316 µM, first compound 0.001 µM) was 81.4% and the viability, T/C (second compound 0.0316 µM, first compound 0.00316 µM) was 89.2%. For the same molecule, the viability, T/C (second compound 0.0316 µM, first compound 0.01 µM) was 83.9%, the viability, T/C [1] was 80.9% and the viability, T/C [2] was 79.6%. The viability, T/C (second compound 0.1 µM, first compound 0.000316 µM) was 81.1%, the viability, T/C (second compound 0.1 µM, first compound 0.001 µM) was 75.3% and the viability, T/C (second compound 0.1 µM, first compound 0.00316 µM) was 75.9%. For the same molecule, the viability, T/C (second compound 0.1 µM, first compound 0.01 µM) was 76.7%, the viability, T/C [3] was 65.9% and the viability, T/C [4] was 66.7%. It also gave a viability, T/C (second compound 0.316 µM, first compound 0.000316 µM) of 34.7%, a viability, T/C (second compound 0.316 µM, first compound 0.001 µM) of 27.6% and a viability, T/C (second compound 0.316 µM, first compound 0.00316 µM) of 36.6%. The viability, T/C (second compound 0.316 µM, first compound 0.01 µM) was 33.9%, the viability, T/C [5] was 28.4% and the viability, T/C [6] was 35%. It also gave a viability, T/C (second compound 1 µM, first compound 0.000316 µM) of 4.32%, a viability, T/C (second compound 1 µM, first compound 0.001 µM) of 8.27% and a viability, T/C (second compound 1 µM, first compound 0.00316 µM) of 5.26%. The viability, T/C (second compound 1 µM, first compound 0.01 µM) was 9.55%, the viability, T/C [7] was 11.9% and the viability, T/C [8] was 11.5%.
With `CNC(=O)c1ccc(N2C(=S)N(c3ccc(C#N)c(C(F)(F)F)c3)C(=O)C2(C)C)cc1F` + CC(Nc1ncnc2nc[nH]c12)c1cc2cccc(Cl)c2c(=O)n1-c1ccccc1 the IC50 (second compound 0.0316 µM) was over 10 µM, the IC50 (second compound 0.1 µM) was over 10 µM and the IC50 (second compound 0.316 µM) was over 10 µM. The IC50 (second compound 1 µM) was over 10 µM, the IC50 (second compound 3.16 µM) was over 10 µM and the IC50 (second compound 10 µM) was over 10 µM. For the same molecule, the viability, T/C [1] was 106%, the viability, T/C [2] was 92.8% and the viability, T/C [9] was 88.1%. It also gave a viability, T/C [10] of 94.5%, a viability, T/C [11] of 79.7% and a viability, T/C [12] of 63.6%. It also gave a viability, T/C [3] of 101%, a viability, T/C [4] of 81% and a viability, T/C [13] of 96.5%. The viability, T/C [14] was 76.3%, the viability, T/C [15] was 80.8% and the viability, T/C [16] was 83.9%. The viability, T/C [5] was 102%, the viability, T/C [6] was 90.1% and the viability, T/C [17] was 92.6%. The viability, T/C [18] was 80.5%, the viability, T/C [19] was 71.7% and the viability, T/C [20] was 52.6%. The viability, T/C [7] was 81.5%, the viability, T/C [8] was 95.7% and the viability, T/C [21] was 96.5%. The viability, T/C [22] was 77.4%, the viability, T/C [23] was 78.2% and the viability, T/C [24] was 68.3%. The viability, T/C [25] was 107%, the viability, T/C [26] was 76.6% and the viability, T/C [27] was 104%. The viability, T/C [28] was 87.6%, the viability, T/C [29] was 80.8% and the viability, T/C [30] was 68.4%. The viability, T/C [31] was 85.7%, the viability, T/C [32] was 97.3% and the viability, T/C [33] was 93.3%. It also gave a viability, T/C [34] of 95.6%, a viability, T/C [35] of 60.9% and a viability, T/C [36] of 58.3%.
`C[C@@H](NC(=O)c1ncnc(N)c1Cl)c1ncc(C(=O)Nc2cc(C(F)(F)F)c(Cl)cn2)s1` + CC(Nc1ncnc2nc[nH]c12)c1cc2cccc(Cl)c2c(=O)n1-c1ccccc1 was tested, and the IC50 (second compound 0.0316 µM) was over 10 µM, the IC50 (second compound 0.1 µM) was over 10 µM and the IC50 (second compound 0.316 µM) was over 10 µM. It also gave an IC50 (second compound 1 µM) of over 10 µM, an IC50 (second compound 3.16 µM) of over 10 µM and an IC50 (second compound 10 µM) of over 10 µM. For the same molecule, the viability, T/C [1] was 110%, the viability, T/C [2] was 105% and the viability, T/C [9] was 109%. The viability, T/C [10] was 104%, the viability, T/C [11] was 105% and the viability, T/C [12] was 78.4%. It also gave a viability, T/C [3] of 97.4%, a viability, T/C [4] of 105% and a viability, T/C [13] of 116%. For the same molecule, the viability, T/C [14] was 106%, the viability, T/C [15] was 110% and the viability, T/C [16] was 101%. It also gave a viability, T/C [5] of 109%, a viability, T/C [6] of 120% and a viability, T/C [17] of 111%. It also gave a viability, T/C [18] of 95.4%, a viability, T/C [19] of 89.2% and a viability, T/C [20] of 98.5%. For the same molecule, the viability, T/C [7] was 83.3%, the viability, T/C [8] was 92.9% and the viability, T/C [21] was 109%. For the same molecule, the viability, T/C [22] was 116%, the viability, T/C [23] was 111% and the viability, T/C [24] was 93.7%. The viability, T/C [25] was 106%, the viability, T/C [26] was 101% and the viability, T/C [27] was 97.7%. It also gave a viability, T/C [28] of 109%, a viability, T/C [29] of 109% and a viability, T/C [30] of 95.6%. For the same molecule, the viability, T/C [31] was 87.8%, the viability, T/C [32] was 90.2% and the viability, T/C [33] was 101%. It also gave a viability, T/C [34] of 97.7%, a viability, T/C [35] of 108% and a viability, T/C [36] of 97%.
